Experimental findings from patent publication US20150176079A1, “MARKERS FOR CANCER” (OSLO UNIVERSITETSSYKEHUS HF, priority 2007, published 2015) are described below.

SMILES strings stand for the structures.

Common to all, as to assay type: cell-based
The subject of test [1] is CNRIP1 mRNA expression in colon cancer cell lines. Nature of the test: Quantitative gene expression of CNRIP1 in colon cancer cell lines before and after epigenetic drug treatment. The following applies: for relative expression of CNRIP1 (fold change, untreated sample as calibrator): six colon cancer cell lines HT29, SW48, HCT15, SW480, RKO, LS1034, AZA 1 or 10 uM 72 h, TSA 0.5 μM 12 h, combination 1 μM AZA 72 h + 0.5 μM TSA last 12 h; for increase in relative expression of CNRIP1, the two doses compared: low dose 1 uM versus high dose 10 uM, 72 h, six colon cancer cell lines. The protocol: (§1) Gene expression was measured in 6 colon cancer cell lines before and after treatment with epigenetic drugs. The relative expression levels of SPG20, INA and CNRIP1 in the colon cancer cell lines (n=6) was measured. […] The mean expression of ACTB and GUSB was used as endogenous control. TaqMan real-time fluorescence detection (Applied Biosystems, Foster city, CA) was used to quantify mRNA levels in the colon cancer cell lines, as previously described [Gibson et al. and Heid et al.]. cDNA was generated from five μg total RNA using a High-Capacity cDNA Archive kit (Applied Biosystems), including random primers according to the manufacturers' protocol. cDNA from the genes of interest (SPG20, INA and CNRIP1) and the endogenous controls (ACTB and GUSB) were amplified separately by the 7900HT Sequence Detection System (Applied Biosystems) following the protocol recommended by supplier. All samples were analyzed in triplicates. The expression levels were calculated as fold changes using the […] method and the untreated sample as a calibrator. In order to adjust for the possibly variable amounts of cDNA input in each PCR, we normalized the expression quantity of the target genes with the housekeeping genes ACTB and GUSB. Six colon cancer cell lines, HCT15, HT29, SW48, SW480, RKO and LS1034 were subjected to treatment with the demethylating drug 5-aza-2'deoxycytidine (1 μM for 72 h and 10 uM for 72 h), the histone deacetylase inhibitor trichostatin A (0.5 μM for 12 h) and a combination of both (1 μM 5-aza-2'deoxycytidine for 72 h, 0.5 μM trichostatin A added the last 12 h).

The subject of test [2] is SPG20 mRNA expression in colon cancer cell lines. Description: Quantitative gene expression of SPG20 in colon cancer cell lines before and after epigenetic drug treatment. Particulars: for relative expression of SPG20 (fold change, untreated sample as calibrator): six colon cancer cell lines HT29, SW48, HCT15, SW480, RKO, LS1034, AZA 1 or 10 uM 72 h, TSA 0.5 μM 12 h, combination 1 μM AZA 72 h + 0.5 μM TSA last 12 h; for increase in relative expression of SPG20, the two doses compared: low dose 1 uM versus high dose 10 uM, 72 h, six colon cancer cell lines. The protocol:
as §1

Test [3] concerns INA mRNA expression in colon cancer cell lines. Description: Quantitative gene expression of INA in colon cancer cell lines before and after epigenetic drug treatment. The following applies: for relative expression of INA (fold change, untreated sample as calibrator): six colon cancer cell lines HT29, SW48, HCT15, SW480, RKO, LS1034, AZA 1 or 10 uM 72 h, TSA 0.5 μM 12 h, combination 1 μM AZA 72 h + 0.5 μM TSA last 12 h; for increase in relative expression of INA, the two doses compared: low dose 1 uM versus high dose 10 uM, 72 h, six colon cancer cell lines. The protocol:
as §1

Test [4] concerns MAL mRNA expression in colon cancer cell lines. Nature of the test: Real-time quantitative gene expression of MAL in colon cancer cell lines after drug treatment. Here is the method: Six colon cancer cell lines, HCT15, HT29, SW48, SW480, RKO and LS1034 were subjected to treatment with the demethylating drug 5-aza-2′deoxycytidine (1 μM for 72 h and 10 uM for 72 h), the histone deacetylase inhibitor trichostatin A (0.5 μM for 12 h) and a combination of both (1 μM 5-aza-2′deoxycytidine for 72 h, 0.5 μM trichostatin A added the last 12 h). Total RNA was extracted from cell lines (n=46), tumours (n=16), and normal tissue (n=3) using Trizol (Invitrogen, Carlsbad, Calif., USA) and the RNA concentration was determined using ND-1000 Nanodrop (NanoDrop Technologies, Wilmington, Del., USA). For each sample, total RNA was converted to cDNA using a High-Capacity cDNA Archive kit (Applied Biosystems), including random primers. MAL (Hs00242749_m1 and Hs00360838_m1) and the endogenous controls ACTB (Hs99999903_m1) and GUSB (Hs99999908_m1) were amplified separately in 96 well fast plates following the recommended protocol (Applied Biosystems), and the real time quantitative gene expression was measured by the 7900HT Sequence Detection System (Applied Biosystems). All samples were analyzed in triplicate, and the median value was used for data analysis. The human universal reference RNA (containing a mixture of RNA from ten different cell lines; Stratagene) was used to generate a standard curve, and the resulting quantitative expression levels of MAL were normalized against the mean value of the two endogenous controls.

For test [5], the system named is MAL promoter methylation in colon cancer cell lines. Nature of the test: Methylation-specific PCR (MSP) of the MAL promoter in colon cancer cell lines after drug treatment. Particulars: colon cancer cell lines HT29 and HCT15 (FIG. 9). The protocol: Six colon cancer cell lines, HCT15, HT29, SW48, SW480, RKO and LS1034 were subjected to treatment with the demethylating drug 5-aza-2′deoxycytidine (1 μM for 72 h and 10 uM for 72 h), the histone deacetylase inhibitor trichostatin A (0.5 μM for 12 h) and a combination of both (1 μM 5-aza-2′deoxycytidine for 72 h, 0.5 μM trichostatin A added the last 12 h). DNA from primary tumours and normal mucosa samples was bisulphite treated as previously described. DNA from colon cancer cell lines was bisulphite treated using the EpiTect bisulphite kit (Qiagen Inc., Valencia, Calif., USA). The promoter methylation status of all genes was analyzed by methylation-specific polymerase chain reaction (MSP) using the HotStarTaq DNA polymerase (Qiagen). All results were confirmed with a second independent round of MSP. Human placental DNA (Sigma Chemical Co, St. Louis, Mo., USA) treated in vitro with SssI methyltransferase (New England Biolabs Inc., Beverly, Mass., USA) was used as a positive control for the methylated MSP reaction, whereas DNA from normal lymphocytes was used as a positive control for unmethylated alleles. Water was used as a negative control in both reactions.

Where [6] appears, read: colon cancer cell lines HT29 and HCT15 (FIG. 9).
[7] abbreviates: listed as 5-aza-2′deoxycytidine.

As for `CC(/C=C/C(=O)NO)=C\[C@@H](C)C(=O)c1ccc(N(C)C)cc1` [trichostatin A], the “relative expression of CNRIP1 (fold change, untreated sample as calibrator)” value in test [1] was “did not increase the gene expression”. Besides, in test [2], the “relative expression of SPG20 (fold change, untreated sample as calibrator)” value is reported as “did not increase the gene expression”. Moreover, in test [3], the “relative expression of INA (fold change, untreated sample as calibrator)” value is reported as “did not increase the gene expression”. In addition, in test [4] (setting [6]), the “MAL mRNA expression” value was “did not increase MAL expression”.

Consider `Nc1ncn([C@H]2C[C@H](O)[C@@H](CO)O2)c(=O)n1` [5-aza-2′-deoxycytidine], for which the “increase in relative expression of CNRIP1, the two doses compared” value in test [1] was “comparable effects”; in test [1] (setting [7]) it was “comparable increases”. The “relative expression of CNRIP1 (fold change, untreated sample as calibrator)” value in test [1] is given as “Up-regulated mRNA expression”. Moreover, the results for the “increase in relative expression of SPG20, the two doses compared” value in test [2] and in test [2] (setting [7]) were “comparable effects” and “comparable increases”, respectively. Also, the “relative expression of SPG20 (fold change, untreated sample as calibrator)” value in test [2] is recorded as “Up-regulated mRNA expression”. In addition, the “increase in relative expression of INA, the two doses compared” value in test [3] was “comparable effects”; in test [3] (setting [7]), “comparable increases”. Moreover, the “relative expression of INA (fold change, untreated sample as calibrator)” value in test [3] was “Up-regulated mRNA expression”. Further, the “MAL mRNA expression” value in test [4] (HCT15 cells) is listed as “more moderate levels”; in test [4] (HT29 cells), “high expression”; in test [4] (setting [6]), “up-regulated mRNA expression”. In addition, the “promoter methylation of MAL (MSP)” value in test [5] is given as “Decreased promoter methylation”.
